The values below are quoted from earlier work in patent US5180744A, “Aralkyl-N-terminal amino hydroxy” (G. D. Searle & Co., priority 1991, dated 1993).

Square brackets hold non-standard residues; d marks the D form. Peptide text beside a SMILES is read from it. * marks the point of attachment. Sta = CC(C)C[C@H](N)[C@@H](O)CC(=O)O; Isovaleryl = CC(C)CC(=O)*

In the data set the test system is hog renin. Particulars: after the injection of hog renin into nephrectomized rats.

For the compound `CC(C)CC(=O)N[C@H](C(=O)N[C@H](C(=O)N[C@@H](CC(C)C)[C@@H](O)CC(=O)N[C@@H](C)C(=O)N[C@@H](CC(C)C)[C@@H](O)CC(=O)O)C(C)C)C(C)C` [pepstatin] (Isovaleryl-VV[Sta]A[Sta]-OH), the “blood pressure in vivo” value is “reduce blood pressure in vivo”.
